target: T1, GABAB receptor (GABABR1a/GABABR2 heterodimer) (Homo sapiens, UniProt O75899+Q9UBS5); assay: [35S]-GTPγS binding assay, potency of PAM (GABA dose-response curves with and without test compound); assay type: biochemical; details: potency of the positive allosteric modulator; GABA dose-response in presence of test compound
T1 construct: expressed in transfected cells
Source text: GABABR1a and GABABR2 were cloned from human brain cDNA and subcloned into pCI-Neo (Promega) and pALTER-1 (Promega), respectively. A GABABR1a-Gαqi5 fusion protein expression vector was constructed using the pCI-Neo-GABABR1a cDNA plasmid and pLEC1-Gαqi5 (Molecular Devices, CA). In order to make the Gαqi5 pertussis toxin insensitive, Cys356 was mutated to Gly using standard PCR methodology with the primers 5′-[…]-3′ (forward) and 5′-GCGGCCG […]-3′ (reverse). The Gαqi5mut cDNA was ligated into the BamHI and NotI sites of pcDNA3.0 (Invitrogen). The GABAB R1a coding sequence was amplified by PCR from pCI-Neo-GABABR1a using the primers, 5′-[…]-3′ (forward) and 5′-[…]-3′ (reverse) and subcloned into the BamHI site of pcDNA3.0-Gαqi5mut.
For generation of a cell line expressing the GABABR1a/GABABR2 heterodimer, GABABR1a plasmid DNA (4 μg) GABABR2 plasmid DNA (4 μg) and lipofectamine (24 μl) were mixed in 5 ml OptiMEM and incubated for 45 minutes at room temperature. The cells were exposed to the transfection medium for 5 hours, which then was replaced with culture medium. The cells were cultured for an additional 10 days before selection agents (300 μg/ml hygromycin and 400 μg/ml geneticin) were added. Twenty-four days after transfection, single cell sorting into 96-well plates by flow cytometry was performed using a FACS Vantage SE (Becton Dickinson, Palo Alto, Calif.). After expansion, the GABAB receptor functional response was tested using the FLIPR assay described below. The clone with the highest functional response was collected, expanded and then subcloned by single cell sorting. The clonal cell line with the highest peak response in the FLIPR was used in the present study.
For generation of a stable cell line expressing GABABR1a-Gαqi5 fusion protein and GABABR2, GABABR1a-Gαqi5mut plasmid DNA (8 μg) GABABR2 plasmid DNA (8 μg) and lipofectamine (24 μl) were mixed in 5 ml OptiMEM and incubated for 45 minutes at room temperature. The cells were exposed to the transfection medium for 5 hours, which then was replaced with culture medium. After forty-eight hours, the cells were detached and seeded in 6 well plates (2000 cells/well) and grown in culture medium supplemented with geneticin (400 μg/ml) and zeocin (250 μg/ml). After 4 days, cells from single colonies were collected and transferred to a 24-well plate. After 10 days, the cell clones were seeded in T-25 flasks and grown for another 16 days before they were tested for GABAB receptor mediated functional response. […] The clonal cell line that gave the highest peak response in the FLIPR was used in the present study.
[^35S]-GTPγS binding assays were performed at 30° C. for 45 min in membrane buffer (100 mM NaCl, 5 mM MgCl2, 1 mM EDTA, 50 mM HEPES, pH 7.4) containing 0.025 μg/μl of membrane protein (prepared from the cell lines described above) with 0.01% bovine serum albumin (fatty acid free), 10 μM GDP, 10 μM DTT and 0.53 nM [^35S]-GTPγS (Amersham-Pharmacia Biotech) in a final volume of 200 μl. Non-specific binding was determined in the presence of 20 μM GTPγS. The reaction was started by the addition of GABA at concentration between 1 mM and 0.1 nM in the presence or absence of the required concentration of PAM. The reaction was terminated by addition of ice-cold wash buffer (50 mM Tris-HCl, 5 mM MgCl2, 50 mM NaCl, pH 7.4) followed by rapid filtration under vacuum through Printed Filtermat A glass fiber filters (Wallac) (0.05% PEI treated) using a Micro 96 Harvester (Skatron Instruments). The filters were dried for 30 min at 50° C., then a paraffin scintillant pad was melted onto the filters and the bound radioactivity was determined using a 1450 Microbeta Trilux (Wallac) scintillation counter.
GABA dose-response curves in the presence and absence of test compounds were constructed using the 4-parameter logistic equation, y=ymax+((ymin−ymax)/1+(x/C)^D), where C=EC50 and D=slope factor.

T1 sequence (Q9UBS5 15-961 limits assumed): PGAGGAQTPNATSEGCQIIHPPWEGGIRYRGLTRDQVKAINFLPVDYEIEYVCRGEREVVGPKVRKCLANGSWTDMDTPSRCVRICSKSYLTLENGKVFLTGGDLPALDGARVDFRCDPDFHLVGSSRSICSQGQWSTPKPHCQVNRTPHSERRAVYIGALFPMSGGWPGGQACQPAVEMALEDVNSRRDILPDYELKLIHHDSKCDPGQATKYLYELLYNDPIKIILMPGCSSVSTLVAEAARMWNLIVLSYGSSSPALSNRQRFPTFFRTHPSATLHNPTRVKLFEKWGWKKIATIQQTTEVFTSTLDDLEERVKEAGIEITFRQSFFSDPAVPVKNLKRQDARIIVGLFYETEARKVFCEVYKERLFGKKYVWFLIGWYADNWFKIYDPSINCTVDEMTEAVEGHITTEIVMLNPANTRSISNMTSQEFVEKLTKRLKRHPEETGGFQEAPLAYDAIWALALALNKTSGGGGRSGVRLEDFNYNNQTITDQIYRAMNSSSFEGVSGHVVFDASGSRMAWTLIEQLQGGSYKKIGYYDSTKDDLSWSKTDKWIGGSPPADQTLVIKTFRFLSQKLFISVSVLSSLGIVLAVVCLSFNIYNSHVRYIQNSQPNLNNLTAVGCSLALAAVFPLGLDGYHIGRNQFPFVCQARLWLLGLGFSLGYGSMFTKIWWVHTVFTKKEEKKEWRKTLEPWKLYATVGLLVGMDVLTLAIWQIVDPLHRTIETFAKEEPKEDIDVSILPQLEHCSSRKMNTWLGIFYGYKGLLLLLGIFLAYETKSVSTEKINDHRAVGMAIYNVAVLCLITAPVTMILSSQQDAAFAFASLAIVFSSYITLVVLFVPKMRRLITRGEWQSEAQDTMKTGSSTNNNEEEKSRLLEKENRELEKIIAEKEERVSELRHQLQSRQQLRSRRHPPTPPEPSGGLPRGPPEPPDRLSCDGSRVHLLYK
T1 sequence (O75899 42-941): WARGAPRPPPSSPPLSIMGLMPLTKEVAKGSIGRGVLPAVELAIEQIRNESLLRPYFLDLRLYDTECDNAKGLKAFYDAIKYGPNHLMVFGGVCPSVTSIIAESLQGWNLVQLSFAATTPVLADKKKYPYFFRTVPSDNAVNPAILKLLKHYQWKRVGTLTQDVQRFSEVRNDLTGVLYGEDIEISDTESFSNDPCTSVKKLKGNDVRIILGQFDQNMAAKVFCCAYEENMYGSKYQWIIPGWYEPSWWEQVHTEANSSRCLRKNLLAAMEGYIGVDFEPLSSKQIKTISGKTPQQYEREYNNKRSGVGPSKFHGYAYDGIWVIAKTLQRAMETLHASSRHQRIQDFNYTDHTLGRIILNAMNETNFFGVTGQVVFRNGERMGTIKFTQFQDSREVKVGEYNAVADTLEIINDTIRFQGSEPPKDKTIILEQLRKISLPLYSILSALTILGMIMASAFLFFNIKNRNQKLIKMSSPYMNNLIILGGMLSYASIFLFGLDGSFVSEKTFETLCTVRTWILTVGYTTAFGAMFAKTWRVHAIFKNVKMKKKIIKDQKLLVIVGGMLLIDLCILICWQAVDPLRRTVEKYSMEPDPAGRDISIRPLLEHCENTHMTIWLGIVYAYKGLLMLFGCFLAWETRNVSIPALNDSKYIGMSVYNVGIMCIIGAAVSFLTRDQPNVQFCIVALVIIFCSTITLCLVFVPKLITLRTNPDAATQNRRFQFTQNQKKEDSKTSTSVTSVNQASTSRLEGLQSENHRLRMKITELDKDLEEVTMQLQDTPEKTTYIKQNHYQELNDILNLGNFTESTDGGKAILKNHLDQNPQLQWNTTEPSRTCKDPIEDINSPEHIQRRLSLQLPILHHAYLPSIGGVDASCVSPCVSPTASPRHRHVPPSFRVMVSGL

Row | SMILES | EC50 [µM]
1 | CCc1nc2c(c(=O)n(Cc3ccc(Cl)cc3)c(=O)n2Cc2scc(S(=O)(=O)C(C)C)c2Cl)n1C [Example 39, 1-(4-chlorobenzyl)-3-{[3-chloro-4-(isopropylsulfonyl)-2-thienyl]methyl}-8-ethyl-7-methyl-3,7-dihydro-1H-purine-2,6-dione] | 1.8
2 | CCc1nc2c(c(=O)n(Cc3ccc(Cl)c(Cl)c3)c(=O)n2CC(=O)C(C)(C)C)n1C [Example 40, 1-(3,4-Dichlorobenzyl)-3-(3,3-dimethyl-2-oxobutyl)-8-ethyl-7-methyl-3,7-dihydro-1H-purine-2,6-dione] | 0.6
3 | CCc1nc2c(c(=O)n(Cc3ccc(Cl)c(Cl)c3)c(=O)n2CCC(C)(C)C)n1C [Example 41, 1-(3,4-Dichlorobenzyl)-3-(3,3-dimethylbutyl)-8-ethyl-7-methyl-3,7-dihydro-1H-purine-2,6-dione] | 2
4 | CCc1nc2c(c(=O)n(Cc3ccc(Cl)c(Cl)c3)c(=O)n2CC(=O)[C@]23C[C@@H]4C[C@H](C[C@@H](C4)C2)C3)n1C [Example 42, 3-{2-[(3S,5S,7S)-Adamantan-1-yl]-2-oxoethyl}-1-(3,4-dichlorobenzyl)-8-ethyl-7-methyl-3,7-dihydro-1H-purine-2,6-dione] | 11.3
5 | CCc1nc2c(c(=O)n(Cc3ccc(Cl)c(Cl)c3)c(=O)n2CC[Si](C)(C)C)n1C [Example 43, 1-(3,4-Dichlorobenzyl)-8-ethyl-7-methyl-3-[2-(trimethylsilyl)ethyl]-3,7-dihydro-1H-purine-2,6-dione] | 2.7
6 | CCc1nc2c(c(=O)n(Cc3ccc(Cl)c(Cl)c3)c(=O)n2CCCCC2CCCCC2)n1C [Example 44, 3-(4-Cyclohexylbutyl)-1-(3,4-dichlorobenzyl)-8-ethyl-7-methyl-3,7-dihydro-1H-purine-2,6-dione] | 12.5

More lines, now with the values ahead:

Row | EC50 [µM] | SMILES
7 | 5.5 | CCc1nc2c(c(=O)n(Cc3ccc(Cl)cc3)c(=O)n2Cc2ccc(C(F)(F)F)cc2)n1C [Example 31, 1-(4-chlorobenzyl)-8-ethyl-7-methyl-3-[4-(trifluoromethyl)benzyl]-3,7-dihydro-1H-purine-2,6-dione]
8 | 7.9 | CCc1nc2c(c(=O)n(Cc3ccc(Cl)cc3)c(=O)n2CCOC)n1C [Example 32, 1-(4-chlorobenzyl)-8-ethyl-3-(2-methoxyethyl)-7-methyl-3,7-dihydro-1H-purine-2,6-dione]
9 | 3.7 | CCC(=O)Cn1c(=O)n(Cc2ccc(Cl)cc2)c(=O)c2c1nc(CC)n2C [Example 33, 1-(4-chlorobenzyl)-8-ethyl-7-methyl-3-(2-oxobutyl)-3,7-dihydro-1H-purine-2,6-dione]
10 | 11.3 | CCc1nc2c(c(=O)n(Cc3ccc(Cl)cc3)c(=O)n2CCCS(=O)(=O)C(C)(C)C)n1C [Example 34, 3-[3-(tert-butylsulfonyl)propyl]-1-(4-chlorobenzyl)-8-ethyl-7-methyl-3,7-dihydro-1H-purine-2,6-dione]
11 | 5.6 | CCc1nc2c(c(=O)n(Cc3ccc(Cl)cc3)c(=O)n2CC(=O)OC(C)(C)C)n1C [Example 35, tert-butyl [1-(4-chlorobenzyl)-8-ethyl-7-methyl-2,6-dioxo-1,2,6,7-tetrahydro-3H-purin-3-yl]acetate]
12 | 6.6 | CCc1nc2c(c(=O)n(Cc3ccc(Cl)cc3)c(=O)n2CCCOc2ccc(C(F)(F)F)cc2)n1C [Example 36, 1-(4-chlorobenzyl)-8-ethyl-7-methyl-3-{3-[4-(trifluoromethyl)phenoxy]propyl}-3,7-dihydro-1H-purine-2,6-dione]
13 | 1.7 | CCc1nc2c(c(=O)n(Cc3ccc(Cl)cc3)c(=O)n2CCn2cccc2)n1C [Example 37, 1-(4-chlorobenzyl)-8-ethyl-7-methyl-3-[2-(1H-pyrrol-1-yl)ethyl]-3,7-dihydro-1H-purine-2,6-dione]
14 | 6.8 | CCc1nc2c(c(=O)n(Cc3ccc(Cl)cc3)c(=O)n2CCCO)n1C [Example 38, 1-(4-chlorobenzyl)-8-ethyl-3-(3-hydroxypropyl)-7-methyl-3,7-dihydro-1H-purine-2,6-dione]

From patent US20090023704A1, “Novel Compounds 737” (ASTRAZENECA AB, priority 2007, published 2009)
